{"source": "paper PMC9200803", "about": "“Design, synthesis, and biological evaluation of tetrahydroquinolinones and tetrahydroquinolines with anticancer activity” (Scientific Reports, 2022)", "key": {"MCF-7 cells": {"system": "MCF-7 cells", "test": "MTT cell viability assay, MCF-7", "type": "cell-based, human", "details": "Homo sapiens, MCF7, 72 h, IC50 ± SD", "experimental": "To evaluate the effects of the newly synthesized tetrahydroquinolin-2(1H)-one derivatives on cell viability, we treated human colon cancer cells HCT-116, human breast cancer cells MCF-7, and human non-small cell lung cancer cells A-549 with different concentrations of the compounds for 72 h. After incubation, the MTT (3-(4,5-dimethylthiazol-2-yl)-2,5-diphenyltetrazolium bromide) assay was performed and the cytotoxic potency of compounds (expressed in IC50) on the cells was determined in comparison to control cells treated with 1% of dimethyl sulfoxide (DMSO) (Table 1). […] We also compared the activity of 20d and 19b to the reference control drug Cisplatin, which is widely used in chemotherapy.\nA-549 (CCL-185) and MCF-7 ([…]) cells were cultured in RPMI-1640 medium, while HCT-116 (CVCL-427), (hMLH1)-deficient (MMR^–) and hMLH1-proficient (MMR^+) RKO cells were cultured in McCoy’s 5A medium. The culture media were supplemented with 10% fetal bovine serum, 2 mM L-glutamine, and antibiotics (penicillin 62.6 µg/ml and streptomycin 40 µg/ml). Cultivation of cell lines was carried out at 37 °C under a humidified atmosphere containing 5% CO2, and the cultures were routinely screened for Mycoplasma contamination. A-549, MCF-7, and HCT-116 cells were obtained from American Type Culture Collection (ATCC), while RKO colon carcinoma cells were a kind gift of Dr Timothy Kinsella (Brown University, USA).\nThe viability of cells was determined in response to the newly synthesized compounds using the MTT (Sigma-Aldrich) assay. Briefly, cells were seeded into 96-well plates and allowed to attach overnight. Then, cells were exposed to various concentrations of compounds for 24, 48 or 72 h. Negative controls were treated with the same amount of DMSO solvent (1%). After treatment, the MTT solution (0.4 mg/ml) was added to each well and allowed to react with cells for 2–3 h at 37 °C. Next, the medium was removed, the formazan product formed was dissolved in 100 μl of DMSO, and the absorbance was determined at 540 nm using an ASYS UVM340 microplate reader (Biochrom Ltd.). The IC50 value, which represents the concentration of the compound required to inhibit cell growth by 50% compared to vehicle, was calculated using GraphPad Prism 8 software based on the curves plotting survival against dose averaged from at least three independent experiments."}, "HCT-116 cells [1]": {"system": "HCT-116 cells", "test": "Annexin V-FITC / PI staining, flow cytometry", "type": "cell-based, human", "details": "HCT-116, Annexin V/PI", "text": "Due to its ability to mediate the redox signaling pathways, ROS interplays between two major types of programmed cell death: autophagy and apoptosis. One of the early events in the process of apoptosis is the translocation of phosphatidylserine to the exposed membrane surface, which can be detected using Annexin V, a protein with a high affinity to this phospholipid. In order to study the impact of 20d on apoptotic cell death, flow cytometry analyses with double-staining using Annexin V-fluorescein isothiocyanate (FITC) conjugate and propidium ioidide (PI) was performed.\nTo determine the proapoptotic activity of compounds, cells were seeded into Petri dishes. […] DMSO (1%, Merck) and Etoposide (10 μM, Sigma-Aldrich) were used as references. Cells were harvested and stained with FITC-Annexin V, (Thermo Fisher, V13242) according to the manufacturer’s instructions. Finally, cells were stained with propidium iodide (Thermo Fisher) and assessed using a Guava easyCyte 8 cell sorter (Merck Millipore). The results were analyzed using FlowJo v10 software."}, "HCT-116 cells [2]": {"system": "HCT-116 cells", "test": "Acridine orange staining of acidic vesicular organelles", "type": "cell-based, human", "details": "HCT-116, p < 0.01", "text": "Then, to elucidate whether compound 20d can act as an autophagy modulator, we stained cells with acridine orange (AO), a lysotropic agent. AO is a weak base that can permeate the cell membrane in an uncharged state emitting green fluorescence. After protonation, AO forms aggregates in acidic vesicular organelles (AVOs), emitting red fluorescence. […] One of the hallmarks of autophagy is the conjugation of LC3-I with phosphatidylethanolamine, followed by its conversion to autophagosome-associated form LC3-II[39]. Taking this into account, we evaluated the expression of LC3I/II in colon cancer cells after exposure to 20d. Furthermore, we studied the expression of LAMP-1, a well-known lysosomal marker. […] This observation was also confirmed by increased punctate cytosolic LC3 fluorescence intensity when HCT-116 cells were assessed by confocal microscopy (Fig. 8e,g). […] It has been shown that multiple signaling pathways are involved in the modulation of autophagy, including the PI3K/AKT/mTOR pathway, which is especially involved in the stage of autophagosome elongation[41],[42]. In this study, we investigated whether 20d-induced autophagy in HCT-116 cells is related to PI3K/AKT/mTOR signaling. […] This proves that 20d induced autophagy cell death in HCT-116 cells by interfering with the PI3K/AKT/mTOR signaling pathway."}, "A-549 cells": {"system": "A-549 cells", "test": "ROS level, H2DCFDA probe, flow cytometry, A-549", "type": "cell-based, human", "details": "A-549, IC50 concentration, 1-24 h"}, "HCT-116 cells [3]": {"system": "HCT-116 cells", "test": "ROS level, H2DCFDA probe, flow cytometry, HCT-116", "type": "cell-based", "experimental": "Reactive oxygen species (ROS) affect the cellular redox homeostasis resulting in extensive and irreparable damage and ultimately cell death. Anticancer compounds with cytotoxic properties often cause disturbances in the redox state in cells. Therefore, we performed a time-dependent kinetic analysis of the intracellular ROS level in colon cancer cell lines after treatment with 20d.\nThe […] ROS levels were determined using an H2DCFDA (2′,7′-dichlorodihydrofluorescein diacetate) probe (Thermo Fisher) following the manufacturer’s protocol. […] DMSO (1%, Merck) and 250 μM H2O2 were used as a negative and positive control, respectively. NAC (500 μM, Sigma-Aldrich) was used as an ROS scavenger to confirm the ROS activity. After treatment with 20d and 19b, cells were incubated with H2DCFDA at 37 °C for 30 min. Subsequently, cells were harvested by trypsinization, rinsed with PBS, and stained with 7-AAD (Thermo Fisher). Finally, the stained cells were analyzed by flow cytometry using a Guava easyCyte 8 cell sorter (Merck Millipore) and FlowJo v10 software.\nROS analysis was performed by seeding the cells into cover glass-bottom 24-well plates for live-cell imaging. Cells were treated with compounds and stained as described above for flow cytometry. […]"}}}
{"molecule": "O=C(Nc1cccc(F)c1)OC1CCCc2c(-c3ccccc3)cc(=O)[nH]c21", "note": "(stereo not drawn) [Compound 20d, (2-oxo-4-phenyl-5,6,7,8-tetrahydroquinolin-8-yl) N-(3-fluorophenyl)carbamate]", "values": [{"measurement": "IC50", "setting": "MCF-7 cells", "result": "> 50", "unit": "µM"}, {"measurement": "early and late apoptotic and necrotic fractions", "setting": "HCT-116 cells [1]", "result": "on the same level as in DMSO-treated group"}, {"measurement": "increase in red fluorescence (AVOs) in comparison to vehicle", "setting": "HCT-116 cells [2]", "result": 1.9, "unit": "fold"}, {"measurement": "increase in ROS level compared to vehicle", "setting": "A-549 cells", "result": "~5", "unit": "%"}, {"measurement": "increase in ROS level compared to vehicle", "setting": "HCT-116 cells [3]; HCT-116, IC50 concentration, 1-24 h", "result": "~ 30%"}, {"measurement": "cytotoxic effect after pretreatment with NAC", "setting": "HCT-116 cells [3]; HCT-116, NAC 500 μM", "result": "NAC diminished the cytotoxic effect"}]}
